Test results reported in US20050089473A1, “Potassium channel mediated delivery of agents through the blood-brain barrier” (Cedars-Sinai Medical Center, priority 2003, published 2005).
Counter-ions that a name gives are not always drawn.

What was measured:
GBM xenograft = assay: In vivo BTB permeability (Ki by QAR) in GBM-xenograft nude rat model
Method: All animal experiments were conducted in accordance with policies set by the Institutional Animal Care and Usage Committee and NIH guidelines. A rat syngeneic tumor model was prepared using female Wistar rats and a human-tumor xenograft model in athymic nude rats weighing 180-200 g were prepared for the BBB/BTB permeability studies. Although brain tumor blood vessel development is rapid in rats compared to humans, this variable should not affect the findings or conclusions because the study analyzes the response of blood vessels, regardless of how rapidly they developed, to vasomodulators. The optimum number of tumor cells and incubation period for in vivo tumor growth was determined in separate experiments. Rat glioma (RG2) cells (1×10^5) in 5 μl of medium with 1.2% methylcellulose were injected into the basal ganglia of Wistar rats, while nude rats were injected with glioblastoma multiforme (GBM) primary cells (5×10^5). The coordinates were 5-mm lateral to the bregma and 4.5 mm deep to the basal ganglia. […]
The unilateral transfer constant, Ki (μl/g/min), which is an initial rate for blood-to-brain transfer of a radiotracer, was calculated as described by Ohno et al. (Ohno, K., Pettigrew, K. O., and Rapsport, S. T. Lower limits of cerebrovascular permeability to […] in the conscious rat. Am. J. Physiol., 253: H299-H307, 1978). […]

[1] = system: metastatic breast brain tumors; assay: [14C]AIB uptake in metastatic breast brain tumor model; type: in vivo, rat; conditions: intravenous co-injection
KATP channels = assay: Membrane potential assay of KATP channel activity; type: cell-based, human; conditions: RBEC, HBMVEC, RG2 and GBM cells
Method: Functional activities of putative KATP channels in HBMVEC and GBM cells were measured by detecting changes in voltage across the cell membrane as described earlier (Ningarsj, N. S., Rao, M., Hashizume, K., Asotra, K., and Black, K. L. Regulation of blood-brain tumor barrier permeability by calcium-activated potassium channels J. Pharmacol. Exp. Ther., 301:838-851, 2002). A membrane potential assay kit (Molecular Devices, Sunnyvale, Calif.) provided a fast, simple and consistent mix-and-read procedure. In brief, HBMVEC and GBM cells obtained from cell passages 2-5 was suspended in 5 ml of growth medium. In two separate experiments, the cell density was adjusted to 1×10^3 cells/well and coated in sterile, clear bottom, blank 96-well plates (Corning, Inc., Acton, Mass.), pre-coated with poly L-Lysine, and allowed to achieve a monolayer within 24 h. The monolayer cells were incubated with the membrane potential assay kit reagents for 30 min and read directly by FLEXstation. The anionic pchemiometric dye that traverses between cells and the extracellular solution in a membrane potential-dependent manner serves as an indicator of vasomodulator-induced voltage changes across the cell membrane. […] Additionally, the effects of the optimum dose (10 μM) of MS and glibenclamide (100 nM) on KATP channels activity in HBMVEC and GBM cells were determined.

[2] = Physiological measurements during BTB permeability determination; type: in vivo, rat
Method: All animal experiments were conducted in accordance with policies set by the Institutional Animal Care and Usage Committee and NIH guidelines. A rat syngeneic tumor model was prepared using female Wistar rats and a human-tumor xenograft model in athymic nude rats weighing 180-200 g were prepared for the BBB/BTB permeability studies. Although brain tumor blood vessel development is rapid in rats compared to humans, this variable should not affect the findings or conclusions because the study analyzes the response of blood vessels, regardless of how rapidly they developed, to vasomodulators. The optimum number of tumor cells and incubation period for in vivo tumor growth was determined in separate experiments. Rat glioma (RG2) cells (1×10^5) in 5 μl of medium with 1.2% methylcellulose were injected into the basal ganglia of Wistar rats, while nude rats were injected with glioblastoma multiforme (GBM) primary cells (5×10^5). The coordinates were 5-mm lateral to the bregma and 4.5 mm deep to the basal ganglia. Seven days (for RG2 tumor) and 3-4 weeks (for GBM) after tumor implantation, the rats were prepared for permeability study as described by (Ningarsj, N. S., Rao, M., Hashizume, K., Asotra, K., and Black, K. L. Regulation of blood-brain tumor barrier permeability by calcium-activated potassium channels J. Pharmacol. Exp. Ther., 301:838-851, 2002; Ningaraj, N. S., Rao, M., and Black, K. L. Calcium-dependent potassium channels as a target protein ir. the modulation of blood-brain humor barrier. Drug News and Perspectives, 16:1-8, 2003). In regional permeability studies, 5 min after the start of the intracarotid (i.c.) infusion, 100 μCi/kg of [^14C] AIB, [^14C] dextran or [^14C] carboplatin to 1 ml phosphate buffer saline (PBS) was injected as an intravenous (i.v.) bolus within a 15 second period. To determine whether the infusion of vasomodulators would affect cerebral blood flow (CBF) at the tumor area, Cerebral Laser-Doppler Flowmetry (LDF) using a Laser-Doppler (DRT4, Moore Instruments Ltd., England) equipped with a DP3 optical (1 mm diameter) probe during 15 min i.c. infusion of vasomodulators in some rats (n=3/group) was used as described in Ningarsj, N. S., Rao, M., Hashizume, K., Asotra, K., and Black, K. L. Regulation of blood-brain tumor barrier permeability by calcium-activated potassium channels J. Pharmacol. Exp. Ther., 301:838-851, 2002; and Ningaraj, N. S., Rao, M., and Black, K. L. Calcium-dependent potassium channels as a target protein ir. the modulation of blood-brain humor barrier. Drug News and Perspectives, 16:1-8, 2003. Rats with abnormal CBF, blood gases or blood pressure were excluded from the study.
The physiological parameters were determined either before or during vasomodulator infusion. The values are mean±SD of n>4 rats, except for cerebral blood flowmetry (CBF) where three representative rats per group were used. pH is arterial pH; PaO2 is arterial oxygen; PaCO2 is arterial carbon dioxide; and MAP is mean arterial blood pressure.

intracerebral RG2 tumors = assay: In vivo BTB permeability (Ki by quantitative autoradiography) in RG2 tumor-bearing rats; set-up: species or system rat; conditions: i.c. MS 30 μg/kg/min, RG2 tumor
Method: All animal experiments were conducted in accordance with policies set by the Institutional Animal Care and Usage Committee and NIH guidelines. A rat syngeneic tumor model was prepared using female Wistar rats and a human-tumor xenograft model in athymic nude rats weighing 180-200 g were prepared for the BBB/BTB permeability studies. […] Rat glioma (RG2) cells (1×10^5) in 5 μl of medium with 1.2% methylcellulose were injected into the basal ganglia of Wistar rats, while nude rats were injected with glioblastoma multiforme (GBM) primary cells (5×10^5). The coordinates were 5-mm lateral to the bregma and 4.5 mm deep to the basal ganglia. […] In regional permeability studies, 5 min after the start of the intracarotid (i.c.) infusion, 100 μCi/kg of [^14C] […]
The Ki was determined for radiotracers, [^14C]-AIB, [^14C]-carboplatin, and [^14C] dextran in the tumor core, tumor-adjacent brain tissue, and contralateral brain tissue using the quantitative autoradiographic (QAR) method as described earlier (Ningarsj, N. S., Rao, M., Hashizume, K., Asotra, K., and Black, K. L. Regulation of blood-brain tumor barrier permeability by calcium-activated potassium channels J. Pharmacol. Exp. Ther., 301:838-851, 2002; Ningaraj, N. S., Rao, M., and Black, K. L. Calcium-dependent potassium channels as a target protein ir. the modulation of blood-brain humor barrier.

[3] = before or during vasomodulator infusion, mean±SD

In the case of Nc1cc(N2CCCCC2)nc(N)[n+]1OS(=O)(=O)[O-] [MS, minoxidil sulfate], the “BTB permeability (Ki)” value (GBM xenograft; GBM xenograft nude rat, i.c. MS 30 μg/kg/min, glibenclamide 5 μg/kg/min for 15 min) is reported as 52 ± 8 µL/g/min, the “BBB permeability in normal brain surrounding tumor or normal contralateral brain” value (GBM xenograft; i.c. infusion) is reported as “did not significantly affect BBB permeability” and the “Level of [14C]AIB in brain tumor tissue versus saline” value [1] is reported as “approximately three times as great”. The “Level of [14C]AIB surrounding the tumor and in contralateral brain versus vehicle” value [1] was “does not differ significantly”, the “Membrane potential dye fluorescence intensity” value (KATP channels) was “dose-dependent decrease” and the PaCO2 [2, 3] was 45 ± 1 mm Hg. For the same molecule, the PaO2 [2, 3] was 90 ± 5 mm Hg, the “pH (arterial pH)” value [2, 3] was 7.38 ± 0.01 and the “Effect on CBF” value ([2]; i.c. 30 μg/kg/min, laser Doppler) was “not to significantly affect CBF”. For the same molecule, the “CBF (% change vs. vehicle)” value ([2]; laser-Doppler flowmetry, three rats per group) was 8 ± 3 % change vs. vehicle and the “Delivery of [14C]-labeled AIB, dextran and carboplatin across the BTB” value (intracerebral RG2 tumors) was “significantly enhanced delivery”.
